Data: US5750826A, “Bradykinin B2 receptor modified transgenic non-human animals” (Merck & Co., Inc., priority 1996, dated 1998)
Where no end group is shown, it is not given here.

Key:
[1] = biological target: T1, human B2 bradykinin receptor (Homo sapiens, UniProt P30411); experiment: Competition binding against 100 pM [3H]BK at the cloned human B2 receptor (COS-7)
T1 construct: placing the entire B2 clone under the control of the CMV promoter; expressed in transfected cells
T1 sequence (P30411 1-364 isoform P30411-2): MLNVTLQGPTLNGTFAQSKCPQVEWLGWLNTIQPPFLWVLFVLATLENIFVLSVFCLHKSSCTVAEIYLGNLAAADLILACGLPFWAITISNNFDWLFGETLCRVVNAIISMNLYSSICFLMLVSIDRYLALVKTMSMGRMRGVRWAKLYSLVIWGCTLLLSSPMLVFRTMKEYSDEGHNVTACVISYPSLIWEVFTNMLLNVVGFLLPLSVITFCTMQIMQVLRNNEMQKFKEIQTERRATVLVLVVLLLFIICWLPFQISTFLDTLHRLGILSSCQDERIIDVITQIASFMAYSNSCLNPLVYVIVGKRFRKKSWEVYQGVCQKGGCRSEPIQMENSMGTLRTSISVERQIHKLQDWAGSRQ
Procedure: (§1) In order to enable expression of the cDNA that encodes for the B2 bradykinin receptor, COS-7 cells were transfected using LIPOFECTIN (BRL, Gaithersburg, Md.) with 50ug/10^7 cells of the B2 receptor cDNA subcloned into the eukaryotic expression vector pcDNA I-Neo (Invitrogen). Cells were then harvested after 72 hours and the membranes containing the expressed receptor protein were prepared by scraping the cells in phosphate buffered saline solution and centrifuging for ten minutes at 500× g. The cell pellet was then resuspended and homogenized with a Polytron in 20 mM N-tris(hydroxymethyl)methyl-2-aminoethane sulfonic acid (TES,pH 6.8 at room temperature) buffer containing 1 mM 1, 10 phenanthroline. The homogenate was then centrifuged for ten minutes at 500 × g. The final membrane pellet was resuspended in assay buffer (TES plus 0.1% protease free bovine serum albumin, 5 uM MK-422 (enalaprilat; Gross et al., 1981) and 140 ug/ml bacitracin using a motor-driven teflon-glass tissue homogenizer. Protein determination was performed by the method of Bradford using bovine IgG as the standard. See Bradford, M.A. Anal. Biochem. 72, 248-254 (1976).
Binding assays were then performed to determine receptor antagonist or agonist interaction. The assays utilized in the instant invention follow the method of Manning et al., J. Pharmacol. Exp. Ther., 237, 504-512 (1986). […] (BRANDEL, Gaithersburg, Md.). The tubes were rinsed two times with 4 ml ice-cold […] and the filter bound radioactivity was quantitated by liquid scintillation counting. […] The competition and saturation experiments were analyzed using the EBDA program of McPherson. See McPherson, G.A. J Pharmacol. Methods 14, 213-218 (1985).

[2] = tested on: mock transfected COS-7 cells; experiment: Binding of BK to membranes of mock transfected COS-7 cells; conditions: membranes from mock transfected COS-7 cells
Procedure: as §1, with “The final membrane pellet was resuspended in assay buffer (TES plus 0.1% protease free bovine serum albumin, 5 uM MK-422 (enalaprilat; Gross et al., 1981) and 140 ug/ml bacitracin using a motor-driven teflon-glass tissue homogenizer. Protein determination was performed by the method of Bradford using bovine IgG as the standard. See Bradford, M.A. Anal. Biochem. 72, 248-254 (1976).” left out
Binding assays were then performed to determine receptor antagonist or agonist interaction. […] The tubes were rinsed two times with 4 ml ice-cold […] and the filter bound radioactivity was quantitated by liquid scintillation counting. […] The competition and saturation experiments were analyzed using the EBDA program of McPherson. […]

[3] = biological target: T2, mouse B2 bradykinin receptor (Mus musculus, UniProt P32299); experiment: Competition binding using 100 pM [3H]BK at the expressed mouse B2 bradykinin receptor; conditions: expressed mouse B2 receptor, 100 pM [3H]BK
T2 construct: The PCR product begins 99 bp upstream of the initiator methionine codon and ends 49 bp downstream of the stop codon; expressed in transfected cells; host or cells: COS-7 (transient), pcDNAI-Neo
T2 sequence (P32299 1-366 isoform P32299-2): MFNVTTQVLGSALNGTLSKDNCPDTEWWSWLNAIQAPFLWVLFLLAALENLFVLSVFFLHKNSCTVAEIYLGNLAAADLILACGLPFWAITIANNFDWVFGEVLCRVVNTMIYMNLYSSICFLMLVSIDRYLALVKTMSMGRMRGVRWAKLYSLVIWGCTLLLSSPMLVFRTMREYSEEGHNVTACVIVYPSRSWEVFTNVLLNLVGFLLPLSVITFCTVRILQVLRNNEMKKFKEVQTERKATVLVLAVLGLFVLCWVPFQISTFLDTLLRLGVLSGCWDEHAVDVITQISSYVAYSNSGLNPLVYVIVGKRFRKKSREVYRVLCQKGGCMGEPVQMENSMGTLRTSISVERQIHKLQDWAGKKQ
Procedure: Binding assays were then performed to determine receptor antagonist or agonist interaction. The assays utilized in the instant invention follow the method of Manning et al., J. Pharmacol. Exp. Ther., 237, 504-512 (1986). [^3 H]BK at various concentrations was incubated for 60 minutes at 25° C. with approximately 50ug membrane protein from COS-7 cells in a volume of 1 ml. The assay was terminated by filtration over Whatman GF/B filters presoaked for 3 hours in 0.1 % polyethyleneimine using a BRANDEL M-24 CELL […] (BRANDEL, Gaithersburg, Md.). The tubes were rinsed two times with 4 ml ice-cold […] and the filter bound radioactivity was quantitated by liquid scintillation counting. Nonspecific binding was determined by performing incubation in the presence of 1 uM BK and generally represents less than 5% of the total binding at 100pM ^3 H]BK. Competition binding experiments, in the presence of 100pM[^3 H]BK, were performed with varying concentrations of the test compound(s). The competition and saturation experiments were analyzed using the EBDA program of McPherson. See McPherson, G.A. J Pharmacol. Methods 14, 213-218 (1985).
To verify the pharmacological properties of the mouse bradykinin B2 receptor the coding sequence of the mouse B2 bradykinin receptor was isolated by PCR (Perkin Elmer/Cetus) using a Techne thermocycler with the template being the EcoR I by Hind III genomic fragment in pSP72 and the 5' primer 5'-[…]-3' (SEQ.ID.NO.:8) and the 3' primer 5'- […]-3' (SEQ.ID.NO.:9). The PCR product was subcloned into the Hind III and Xba I sites of the eukaryotic expression vector pcDNAI-Neo (Invitrogen). The PCR product begins 99 bp upstream of the initiator methionine codon and ends 49 bp downstream of the stop codon. The DNA sequence analysis using Sequenase (US Biochemical) of the subcloned PCR product confirmed that the sequence was identical to that in the original genomic fragment.

rat vas deferens = conditions: cited from earlier work
guinea pig ileum mucosa = conditions: nanomolar concentrations, serosal surface; cited from earlier work
Swiss 3T3 fibroblasts = conditions: cited from earlier work
[4] = tested on: CPAE cells (bovine pulmonary artery endothelial cells); conditions: cited from earlier work

With RPPGFSPFR [BK] the “specificity of binding (rank order)” value [1] was “BK>lys-BK>met-lys-BK”, the “BK specific binding sites” value [2] was “did not contain any detectable BK specific binding sites” and the affinity [3] was “high (subnanomolar) affinity”. For the same sequence, the “contraction of smooth muscle / muscle tone” value (rat vas deferens; musculotropic/postjunctional action) was “contracted the smooth muscle generating an increased muscle tone”, the “magnitude of the muscular response to electrically driven twitches” value (rat vas deferens; neurogenic/presynaptic effect) was “potentiated” and the “transepithelial potential difference (p.d.) and short circuit current (ISC)” value (guinea pig ileum mucosa) was “rapidly increased”. For the same sequence, the “phospholipase C mediated InsP formation and PGE-2 synthesis” value (Swiss 3T3 fibroblasts) was “stimulated” and the “activity of phosphatidylcholine-specific PLC” value [4] was “stimulates”.
